Legend:
NCI-H460 [1] = assay: Cytotoxicity against human NCI-H460 cells assessed as growth inhibition at 0.1 ug/ml after 24 hrs by MTT assay; assay type: functional; details: NCI-H460, 24 h, read-out: GI
[2] = Cytotoxicity against human HO8910 cells assessed as growth inhibition at 100 ug/ml after 24 hrs by MTT assay; assay type: functional; details: HO-8910, 24 h, read-out: GI
[3] = Cytotoxicity against human HO8910 cells assessed as growth inhibition at 10 ug/ml after 24 hrs by MTT assay; assay type: functional; details: HO-8910, 24 h, read-out: GI
[4] = Cytotoxicity against human HO8910 cells assessed as growth inhibition at 1 ug/ml after 24 hrs by MTT assay; assay type: functional; details: HO-8910, 24 h, read-out: GI
[5] = Cytotoxicity against human HO8910 cells assessed as growth inhibition at 0.1 ug/ml after 24 hrs by MTT assay; assay type: functional; details: HO-8910, 24 h, read-out: GI
KB [6] = assay: Cytotoxicity against human KB cells assessed as growth inhibition at 100 ug/ml after 24 hrs by MTT assay; assay type: functional; details: read-out: GI
KB [7] = assay: Cytotoxicity against human KB cells assessed as growth inhibition at 10 ug/ml after 24 hrs by MTT assay; assay type: functional; details: read-out: GI
KB [8] = assay: Cytotoxicity against human KB cells assessed as growth inhibition at 1 ug/ml after 24 hrs by MTT assay; assay type: functional; details: read-out: GI
KB [9] = assay: Cytotoxicity against human KB cells assessed as growth inhibition at 0.1 ug/ml after 24 hrs by MTT assay; assay type: functional; details: read-out: GI
Bel-7402 [10] = assay: Cytotoxicity against human Bel7402 cells assessed as growth inhibition at 100 ug/ml after 24 hrs by MTT assay; assay type: functional; details: Bel-7402, 24 h, read-out: GI
Bel-7402 [11] = assay: Cytotoxicity against human Bel7402 cells assessed as growth inhibition at 10 ug/ml after 24 hrs by MTT assay; assay type: functional; details: Bel-7402, 24 h, read-out: GI
Bel-7402 [12] = assay: Cytotoxicity against human Bel7402 cells assessed as growth inhibition at 1 ug/ml after 24 hrs by MTT assay; assay type: functional; details: Bel-7402, 24 h, read-out: GI
Bel-7402 [13] = assay: Cytotoxicity against human Bel7402 cells assessed as growth inhibition at 0.1 ug/ml after 24 hrs by MTT assay; assay type: functional; details: Bel-7402, 24 h, read-out: GI
PC-3 [14] = assay: Cytotoxicity against human PC3 cells assessed as growth inhibition at 100 ug/ml after 24 hrs by MTT assay; assay type: functional; details: PC-3, 24 h, read-out: GI
PC-3 [15] = assay: Cytotoxicity against human PC3 cells assessed as growth inhibition at 10 ug/ml after 24 hrs by MTT assay; assay type: functional; details: PC-3, 24 h, read-out: GI
PC-3 [16] = assay: Cytotoxicity against human PC3 cells assessed as growth inhibition at 1 ug/ml after 24 hrs by MTT assay; assay type: functional; details: PC-3, 24 h, read-out: GI
PC-3 [17] = assay: Cytotoxicity against human PC3 cells assessed as growth inhibition at 0.1 ug/ml after 24 hrs by MTT assay; assay type: functional; details: PC-3, 24 h, read-out: GI
NCI-H460 [18] = assay: Cytotoxicity against human NCI-H460 cells assessed as growth inhibition at 100 ug/ml after 24 hrs by MTT assay; assay type: functional; details: NCI-H460, 24 h, read-out: GI
NCI-H460 [19] = assay: Cytotoxicity against human NCI-H460 cells assessed as growth inhibition at 10 ug/ml after 24 hrs by MTT assay; assay type: functional; details: NCI-H460, 24 h, read-out: GI
NCI-H460 [20] = assay: Cytotoxicity against human NCI-H460 cells assessed as growth inhibition at 1 ug/ml after 24 hrs by MTT assay; assay type: functional; details: NCI-H460, 24 h, read-out: GI
CCRF S-180 [21] = assay: Antitumor activity against mouse S180 cells xenografted in ICR mouse assessed as reduction of tumor weight at 100 mg/kg, ig administered 2 days after tumor inoculation qd for 7 days; assay type: functional; details: route intragastric
CCRF S-180 [22] = assay: Antitumor activity against mouse S180 cells xenografted in ICR mouse assessed as reduction of tumor weight at 200 mg/kg, ig administered 2 days after tumor inoculation qd for 7 days; assay type: functional; details: route intragastric
CCRF S-180 [23] = assay: Antitumor activity against mouse S180 cells xenografted in ICR mouse assessed as inhibition of tumor weight at 200 mg/kg, ig administered 2 days after tumor inoculation qd for 7 days relative to control; assay type: functional; details: CCRF S-180, po, route intragastric
CCRF S-180 [24] = assay: Cytotoxicity against mouse S180 cells assessed as growth inhibition at 100 ug/ml after 24 hrs by MTT assay; assay type: functional; details: CCRF S-180, 24 h
CCRF S-180 [25] = assay: Cytotoxicity against mouse S180 cells assessed as growth inhibition at 10 ug/ml after 24 hrs by MTT assay; assay type: functional; details: CCRF S-180, 24 h
CCRF S-180 [26] = assay: Cytotoxicity against mouse S180 cells assessed as growth inhibition at 1 ug/ml after 24 hrs by MTT assay; assay type: functional; details: CCRF S-180, 24 h
CCRF S-180 [27] = assay: Cytotoxicity against mouse S180 cells assessed as growth inhibition at 0.1 ug/ml after 24 hrs by MTT assay; assay type: functional; details: CCRF S-180, 24 h
Mus musculus [28] = assay: Acute toxicity in ICR mouse assessed as gross pathological changes at 1000 mg/kg, ig; assay type: organism-based; design: dose 1000 mg/kg, route intragastric; details: in vivo, po
Mus musculus [29] = assay: Acute toxicity in ICR mouse assessed as mortality at 1000 mg/kg, ig; assay type: organism-based; design: dose 1000 mg/kg, route intragastric; details: in vivo, po
[30] = Acute toxicity in ICR mouse; assay type: organism-based; details: in vivo
Mus musculus [31] = assay: Acute toxicity in ICR mouse assessed as mortality at 100 mg/kg, ip qd for 4 days; assay type: organism-based; design: dose 100 mg/kg, route intraperitoneal; details: in vivo, 96 h
Mus musculus [32] = assay: Acute toxicity in ICR mouse assessed as change in body weight at 100 mg/kg, ip qd for 4 days; assay type: organism-based; design: dose 100 mg/kg, route intraperitoneal; details: in vivo, 96 h
Mus musculus [33] = assay: Acute toxicity in ICR mouse assessed as mortality at 200 mg/kg, ip qd for 9 days measured on day 11; assay type: organism-based; design: dose 200 mg/kg, route intraperitoneal; details: in vivo, 216 h
DU-145 = assay: Cytotoxicity against human DU145 cells; assay type: functional, cell-based

Structure (SMILES) | inhibition of growth at 0.1 µg/mL (NCI-H460 [1]) [%] | inhibition of growth at 100 µg/mL [2] [%] | inhibition of growth at 10 µg/mL [3] [%] | inhibition of growth at 1 µg/mL [4] [%] | inhibition of growth at 100 µg/mL (KB [6]) [%] | inhibition of growth at 10 µg/mL (KB [7]) [%] | inhibition of growth at 1 µg/mL (KB [8]) [%] | inhibition of growth at 100 µg/mL (Bel-7402 [10]) [%] | inhibition of growth at 10 µg/mL (Bel-7402 [11]) [%] | inhibition of growth at 1 µg/mL (Bel-7402 [12]) [%] | inhibition of growth at 100 µg/mL (PC-3 [14]) [%] | inhibition of growth at 10 µg/mL (PC-3 [15]) [%] | inhibition of growth at 1 µg/mL (PC-3 [16]) [%] | inhibition of growth at 0.1 µg/mL (PC-3 [17]) [%] | inhibition of growth at 100 µg/mL (NCI-H460 [18]) [%] | inhibition of growth at 10 µg/mL (NCI-H460 [19]) [%] | inhibition of growth at 1 µg/mL (NCI-H460 [20]) [%] | also measured
O=C(CCCCC1CCSS1)Nc1ccccc1 (stereo unspecified) | 9.48 | 57.8 | 4.71 | 10.9 | 65.3 | 10.2 | 6.06 | 60.6 | 2.27 | 3.28 | 59.2 | 13 | 13.6 | 5.5 | 47.6 | 0.75 | 5.86 | inhibition of growth at 0.1 µg/mL [5]: 11.2%; inhibition of growth at 0.1 µg/mL (KB [9]): 10.9%; inhibition of growth at 0.1 µg/mL (Bel-7402 [13]): 3.22%
O=C(CCCCC1CCSS1)Nc1ccc(Cl)cn1 (stereo unspecified) | 3.93 | 68.5 | 27.5 | 2.1 | 74.5 | 28.6 | 0.76 | 48.5 | 16.1 | 7.44 | 42.3 | 17.1 | 2 | 2.22 | 58.5 | 33.7 | 6.26 | Activity (CCRF S-180 [21]): 1.53 g; Activity (CCRF S-180 [22]): 1.15 g; inhibition in vivo at 200 mg/kg (CCRF S-180 [23]): 24.7%; inhibition at 100 µg/mL (CCRF S-180 [24]): 74.3%; inhibition at 10 µg/mL (CCRF S-180 [25]): 24.5%; inhibition at 1 µg/mL (CCRF S-180 [26]): 13%; inhibition at 0.1 µg/mL (CCRF S-180 [27]): 5.92%; Activity (Mus musculus [28]): Non-toxic; Activity (Mus musculus [29]): Non-toxic; LD50 [30]: 1000 mg/kg; Activity (Mus musculus [31]): Non-toxic; Activity (Mus musculus [32]): 10%; Activity (Mus musculus [33]): Toxic
COC(=O)CCCCC(CCSC(=O)CCCSC)SC(=O)CCCSC (stereo unspecified) |  |  |  |  |  |  |  |  |  |  |  |  |  |  |  |  |  | IC50 (DU-145): 400 µM

From ChEMBL document CHEMBL1157124, “Synthesis and anticancer evaluation of alpha-lipoic acid derivatives” (Bioorg Med Chem Lett, 2010)
